# Laboratory results: patent US20200129450A1, “COMPOSITION COMPRISING OSMUNDACETONE OR PHARMACEUTICALLY ACCEPTABLE SALT THEREOF FOR PREVENTING OR TREATING BONE DISEASE” (KORPHARM CO., LTD., priority 2016, published 2020)
# Assays:
# [1] = test system: AGS human stomach adenocarcinoma; test: MTT assay cytotoxicity; type: cell-based; conditions: 24 hours
# Description: (§1) AGS human stomach adenocarcinoma cells (# KCLB 21739), A549 human lung carcinoma cells (# KCLB 10185), Caki-1 human kidney carcinoma cells (# KCLB 30046), T24 human bladder carcinoma cells (# KCLB 30004), TC-1 P3 HPV-16E7-expressing mouse pulmonary epithelial cells, MHC class I (provided by Tae-Woo Kim, a professor of Korea University) were incubated using RPMI (Rosewell Park Memorial Institute) 1640 (# RPMI-A, Capricorn Scientific, Ebsdorfergrund, Germany) in the conditions of 37° C. and 5% CO2.
# (§2) The compound isolated from Osmunda japonica, prepared in section 1 of <Example 1>, was investigated for cytotoxicity using MTT assay.
# (§3) MTT assay was as follows.
# (§4) Cells were incubated at 1×10^3 cells/well in a 96-well plate containing DMEM with 10% fetal bovine serum (FBS) at 5% CO2 and 37° C., and then osmundacetone was added to the cell medium, followed by incubation for 24 hours. Thereafter, 100 μL of MTT (0.5 mg/ml PBS) was administered, followed by incubation for 2 hours. Thereafter, the medium was removed from each well, and 100 μL of DMSO was added. After incubation for 10 minutes, the absorbance was measured using a microplate reader (SPCTRA MAX 340PC, Molecular Devices, USA) at 570 nm. The absorbance is an indicator showing the number of living cells, and calculated by the following equation. The reproducibility thereof was validated by three experiments. […]
# [2] = test system: A549 human lung carcinoma; test: MTT assay cytotoxicity; type: cell-based; conditions: cancer cell
# Description: as §1, §2, §3, §4
smiles,measurement,setting,value
"CC(=O)/C=C/c1ccc(O)c(O)c1 [Osmundacetone, (3E)-4-(3,4-dihydroxyphenyl)-3-buten-2-one]",LD50 (MTT assay),[1],59.9 ± 6.1 µM
same,LD50 (μM) Based on MIT Assay,[2],">5,000 μM"
